± gives the expanded uncertainty stated by the source.
Experiment: xn = mol fraction of the nth substance listed
Details: Liquid

ClCCBr [1-bromo-2-chloroethane] + CCOC(C)=O
Details | mass density [kg/m3]
288.15 K, 101.33 kPa, x1 = 0.108 | 984.97 ± 0.4
288.15 K, 101.33 kPa, x1 = 0.1985 | 1051.71 ± 0.52
288.15 K, 101.33 kPa, x1 = 0.2997 | 1128.56 ± 0.73
288.15 K, 101.33 kPa, x1 = 0.3988 | 1205.99 ± 0.95
288.15 K, 101.33 kPa, x1 = 0.5008 | 1288.67 ± 1.2
288.15 K, 101.33 kPa, x1 = 0.5477 | 1327.76 ± 1.3
288.15 K, 101.33 kPa, x1 = 0.6462 | 1412.26 ± 1.6
288.15 K, 101.33 kPa, x1 = 0.7653 | 1518.63 ± 1.9
288.15 K, 101.33 kPa, x1 = 0.803 | 1553.45 ± 2
288.15 K, 101.33 kPa, x1 = 0.905 | 1650.02 ± 2.3
288.15 K, 101.33 kPa, x1 = 1 | 1744.36 ± 2.6
298.15 K, 101.33 kPa, x1 = 0.108 | 972.55 ± 0.41
298.15 K, 101.33 kPa, x1 = 0.1985 | 1039.06 ± 0.5
298.15 K, 101.33 kPa, x1 = 0.2997 | 1115.49 ± 0.7
298.15 K, 101.33 kPa, x1 = 0.3988 | 1192.41 ± 0.92
298.15 K, 101.33 kPa, x1 = 0.5008 | 1274.57 ± 1.2
298.15 K, 101.33 kPa, x1 = 0.5477 | 1313.32 ± 1.3
298.15 K, 101.33 kPa, x1 = 0.6462 | 1397.28 ± 1.5
298.15 K, 101.33 kPa, x1 = 0.7653 | 1503.13 ± 1.9
298.15 K, 101.33 kPa, x1 = 0.803 | 1537.71 ± 2
298.15 K, 101.33 kPa, x1 = 0.905 | 1634.03 ± 2.3
298.15 K, 101.33 kPa, x1 = 1 | 1727.88 ± 2.6
298.15 K, 200 kPa, x1 = 0.2995 | 1115.91 ± 0.71
298.15 K, 200 kPa, x1 = 0.5013 | 1278.27 ± 1.2
298.15 K, 200 kPa, x1 = 0.6994 | 1442.43 ± 1.7
298.15 K, 500 kPa, x1 = 0.2995 | 1116.35 ± 0.71
298.15 K, 600 kPa, x1 = 0.6994 | 1443.12 ± 1.7
298.15 K, 700 kPa, x1 = 0.5013 | 1278.85 ± 1.2
298.15 K, 1100 kPa, x1 = 0.6994 | 1443.6 ± 1.8
298.15 K, 1200 kPa, x1 = 0.2995 | 1117.05 ± 0.73
298.15 K, 1200 kPa, x1 = 0.5013 | 1279.48 ± 1.2
298.15 K, 2100 kPa, x1 = 0.2995 | 1118.11 ± 0.75
298.15 K, 2100 kPa, x1 = 0.5013 | 1280.34 ± 1.3
298.15 K, 2100 kPa, x1 = 0.6994 | 1444.65 ± 1.8
298.15 K, 2900 kPa, x1 = 0.6994 | 1445.74 ± 1.9
298.15 K, 3000 kPa, x1 = 0.2995 | 1119.13 ± 0.77
298.15 K, 3000 kPa, x1 = 0.5013 | 1281.5 ± 1.3
298.15 K, 4000 kPa, x1 = 0.2995 | 1120.19 ± 0.79
298.15 K, 4000 kPa, x1 = 0.5013 | 1282.56 ± 1.4
298.15 K, 4100 kPa, x1 = 0.6994 | 1447.07 ± 2
298.15 K, 5000 kPa, x1 = 0.2995 | 1121.32 ± 0.81
298.15 K, 5000 kPa, x1 = 0.5013 | 1283.71 ± 1.4
298.15 K, 5100 kPa, x1 = 0.6994 | 1448.15 ± 2.1
298.15 K, 5800 kPa, x1 = 0.2995 | 1122.17 ± 0.83
298.15 K, 5800 kPa, x1 = 0.6994 | 1448.98 ± 2.2
298.15 K, 5900 kPa, x1 = 0.5013 | 1284.8 ± 1.5
298.15 K, 7000 kPa, x1 = 0.5013 | 1285.84 ± 1.6
298.15 K, 7000 kPa, x1 = 0.6994 | 1450.32 ± 2.3
298.15 K, 7100 kPa, x1 = 0.2995 | 1123.21 ± 0.86
298.15 K, 7700 kPa, x1 = 0.6994 | 1451.09 ± 2.3
298.15 K, 7900 kPa, x1 = 0.2995 | 1124.37 ± 0.89
298.15 K, 8000 kPa, x1 = 0.5013 | 1286.92 ± 1.6
298.15 K, 8600 kPa, x1 = 0.2995 | 1125.17 ± 0.91
298.15 K, 8700 kPa, x1 = 0.5013 | 1287.86 ± 1.6
298.15 K, 8800 kPa, x1 = 0.6994 | 1452.5 ± 2.5
298.15 K, 10100 kPa, x1 = 0.2995 | 1126.71 ± 0.95
298.15 K, 10100 kPa, x1 = 0.5013 | 1289.28 ± 1.7
298.15 K, 10300 kPa, x1 = 0.6994 | 1454.22 ± 2.6
298.15 K, 11700 kPa, x1 = 0.2995 | 1128.38 ± 0.99
298.15 K, 12000 kPa, x1 = 0.5013 | 1291.48 ± 1.9
298.15 K, 12000 kPa, x1 = 0.6994 | 1456.29 ± 2.8
298.15 K, 13700 kPa, x1 = 0.5013 | 1293.44 ± 2
298.15 K, 13800 kPa, x1 = 0.2995 | 1130.67 ± 1.1
298.15 K, 14000 kPa, x1 = 0.6994 | 1458.57 ± 3
298.15 K, 15500 kPa, x1 = 0.5013 | 1295.42 ± 2.1
298.15 K, 15900 kPa, x1 = 0.2995 | 1132.71 ± 1.1
298.15 K, 15900 kPa, x1 = 0.6994 | 1460.86 ± 3.2
298.15 K, 17400 kPa, x1 = 0.6994 | 1462.58 ± 3.3
298.15 K, 17700 kPa, x1 = 0.2995 | 1134.48 ± 1.2
298.15 K, 17900 kPa, x1 = 0.5013 | 1298.2 ± 2.3
298.15 K, 19200 kPa, x1 = 0.6994 | 1464.86 ± 3.5
298.15 K, 19700 kPa, x1 = 0.2995 | 1136.76 ± 1.2
298.15 K, 19800 kPa, x1 = 0.5013 | 1300.25 ± 2.4
308.15 K, 101.33 kPa, x1 = 0.108 | 959.03 ± 0.43
308.15 K, 101.33 kPa, x1 = 0.1985 | 1024.94 ± 0.48
308.15 K, 101.33 kPa, x1 = 0.2997 | 1100.59 ± 0.68
308.15 K, 101.33 kPa, x1 = 0.3988 | 1177.02 ± 0.89
308.15 K, 101.33 kPa, x1 = 0.5008 | 1258.55 ± 1.1
308.15 K, 101.33 kPa, x1 = 0.5477 | 1296.96 ± 1.2
308.15 K, 101.33 kPa, x1 = 0.6462 | 1380.36 ± 1.5
308.15 K, 101.33 kPa, x1 = 0.7653 | 1485.56 ± 1.8
308.15 K, 101.33 kPa, x1 = 0.803 | 1519.81 ± 1.9
308.15 K, 101.33 kPa, x1 = 0.905 | 1615.55 ± 2.2
308.15 K, 101.33 kPa, x1 = 1 | 1708.86 ± 2.5

Source: the NIST ThermoML archive (doi:10.1007/s10765-005-5570-x)
